{"source": "paper PMC5651819", "about": "“AtSPX1 affects the AtPHR1–DNA-binding equilibrium by binding monomeric AtPHR1 in solution” (Biochemical Journal, 2017)", "biological_target": "T1, GST–AtSPX1 (Arabidopsis thaliana, UniProt Q8LBH4)", "T1 construct": "gene SPX1; contains degradation products and free GST", "T1 sequence (Q8LBH4 1-256)": "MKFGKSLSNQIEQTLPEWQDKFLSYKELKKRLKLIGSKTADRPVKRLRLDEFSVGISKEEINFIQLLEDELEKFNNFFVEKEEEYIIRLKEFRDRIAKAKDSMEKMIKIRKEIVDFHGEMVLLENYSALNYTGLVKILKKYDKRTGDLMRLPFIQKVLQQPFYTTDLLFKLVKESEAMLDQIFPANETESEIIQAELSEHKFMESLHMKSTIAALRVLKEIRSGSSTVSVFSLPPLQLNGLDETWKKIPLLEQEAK", "test": "microscale thermophoresis", "details": "unreliable; data not shown; some Pi binding to free GST, precise affinity could not be determined"}
{"smiles": "O=P(O)(O)O", "note": "[Pi]", "values": [{"measurement": "Kd", "value": "5 to 10", "unit": "mM"}]}
